{"source": "patent US20030120073A1", "about": "“Alpha-ketocarboxylic acid based inhibitors of phosphoryl tyrosine phosphatases” (priority 2001, published 2003)", "key": {"[1]": {"molecular_target": "T1, Yersinia PTPase (Yersinia enterocolitica, UniProt P15273)", "T1 construct": "purchased Calbiochem", "T1 sequence (P15273 whole entry)": "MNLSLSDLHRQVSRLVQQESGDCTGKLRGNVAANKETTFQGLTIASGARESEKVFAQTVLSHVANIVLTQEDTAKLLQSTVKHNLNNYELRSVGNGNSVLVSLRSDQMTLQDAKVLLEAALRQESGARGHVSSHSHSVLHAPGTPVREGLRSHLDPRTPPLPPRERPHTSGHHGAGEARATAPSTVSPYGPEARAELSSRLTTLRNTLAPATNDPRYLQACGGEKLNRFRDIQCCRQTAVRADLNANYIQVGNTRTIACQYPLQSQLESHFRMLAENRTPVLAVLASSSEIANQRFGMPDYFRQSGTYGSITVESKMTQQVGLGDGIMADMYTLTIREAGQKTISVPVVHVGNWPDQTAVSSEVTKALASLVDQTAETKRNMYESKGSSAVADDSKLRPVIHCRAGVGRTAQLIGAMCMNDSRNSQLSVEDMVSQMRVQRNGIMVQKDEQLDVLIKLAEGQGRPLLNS", "assay": "biochemical", "type": "biochemical"}, "[2]": {"molecular_target": "T2, PTP1B (Homo sapiens, UniProt P18031)", "T2 construct": "purchased Calbiochem", "T2 sequence (P18031 1-435)": "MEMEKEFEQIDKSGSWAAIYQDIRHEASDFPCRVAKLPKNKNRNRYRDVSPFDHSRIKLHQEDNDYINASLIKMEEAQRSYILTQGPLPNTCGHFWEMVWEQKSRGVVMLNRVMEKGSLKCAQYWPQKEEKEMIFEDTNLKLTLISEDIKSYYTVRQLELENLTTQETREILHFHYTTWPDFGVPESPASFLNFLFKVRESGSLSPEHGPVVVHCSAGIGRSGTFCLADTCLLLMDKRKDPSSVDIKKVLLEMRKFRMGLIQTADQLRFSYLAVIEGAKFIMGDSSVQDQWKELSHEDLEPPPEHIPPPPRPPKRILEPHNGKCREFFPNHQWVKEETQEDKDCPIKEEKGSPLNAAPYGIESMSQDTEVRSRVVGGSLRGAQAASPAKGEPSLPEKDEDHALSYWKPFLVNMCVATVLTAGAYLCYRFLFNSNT", "assay": "PTP1B assay (p-NPP hydrolysis, UV at 420 nm)", "type": "biochemical", "settings": "100 mM acetate pH 5.5, 10% DMSO; read-out: Km of substrate, PTP1B", "description": "PTP1B Assay: PTP1B (purchased from Calbiochem) was assayed usingp-NPP as the substrate and the reaction progress was monitored by UV spectroscopy. Initial rates were determined by monitoring the hydrolysis of p-NPP at 420 nm, from 10 to 120 s after mixing. Assay solutions contained 1.2 mM substrate, 1 mM EDTA, 100 mM NaCl, and 100 mM acetate at pH 5.5, and 10% DMSO. IC50 values were calculated using a Dixon analysis. Data analysis was performed with the commercial graphing package Grafit (Erithacus Software Ltd.)."}, "[3]": {"molecular_target": "T3, LAR PTPase (Homo sapiens, UniProt P10586)", "T3 construct": "purchased Calbiochem", "T3 sequence (P10586 1301-1639 limits assumed)": "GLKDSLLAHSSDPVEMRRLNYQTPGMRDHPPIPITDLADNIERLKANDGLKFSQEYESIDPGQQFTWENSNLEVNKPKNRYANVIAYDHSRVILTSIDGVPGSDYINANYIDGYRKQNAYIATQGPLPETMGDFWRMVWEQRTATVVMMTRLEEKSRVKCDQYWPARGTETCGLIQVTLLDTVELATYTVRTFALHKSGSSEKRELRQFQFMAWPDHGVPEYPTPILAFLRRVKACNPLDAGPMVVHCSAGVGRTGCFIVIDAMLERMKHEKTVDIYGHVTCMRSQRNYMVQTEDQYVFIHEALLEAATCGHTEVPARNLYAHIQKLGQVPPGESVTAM", "assay": "LAR PTPase assay (p-NPP hydrolysis, UV at 420 nm)", "type": "biochemical", "settings": "100 mM acetate pH 5.5, 10% DMSO; read-out: Km of substrate, LAR"}, "[4]": {"molecular_target": "T2, PTP1B", "settings": "absence of DMSO, acetate buffer pH 5.5; reference 1; read-out: Km of substrate, PTP1B (reported); cited from earlier work"}}, "note": "Where two headings read alike, the source gives them in different places.", "data": [{"smiles": "O=C(O)C(=O)c1ccccc1", "note": "[Compound 1]", "values": [{"measurement": "IC50", "setting": "[1]", "value": 2700, "unit": "µM"}]}, {"smiles": "COc1ccc(C(=O)C(=O)O)cc1", "note": "[Compound 10]", "values": [{"measurement": "IC50", "setting": "[1]", "value": 150, "unit": "µM"}]}, {"smiles": "O=C(O)C(=O)c1ccco1", "note": "[Compound 11]", "values": [{"measurement": "Ki", "setting": "[1]", "value": 79, "unit": "µM"}]}, {"smiles": "O=[N+]([O-])c1ccc(OP(=O)(O)O)cc1", "note": "[p-NPP]", "values": [{"measurement": "Km", "setting": "[1]; pH 5.5, read-out: Km of substrate, Yersinia PTPase", "value": 2500, "unit": "µM"}, {"measurement": "Km", "setting": "[2]", "value": 620, "unit": "µM"}, {"measurement": "Km", "setting": "[3]", "value": 2100, "unit": "µM"}, {"measurement": "Km", "setting": "[4]", "value": 750, "unit": "µM"}]}, {"smiles": "O=C(O)C(=O)c1c[nH]c2ccccc12", "note": "[Compound 8]", "values": [{"measurement": "IC50", "setting": "[1]", "value": 390, "unit": "µM"}]}, {"smiles": "O=C(O)C(=O)c1ccc(O)cc1", "note": "[Compound 27]", "values": [{"measurement": "IC50", "setting": "[1]", "value": "200 ± 20", "unit": "µM"}]}]}
